{
  "source": "patent US8372799B2",
  "about": "“Reverse protein” (Apeptico Forschung und Entwicklung GmbH, priority 2007, dated 2013)",
  "target": "T1, epithelial sodium channels (Homo sapiens, UniProt P37088+P51168+P51170)",
  "T1 construct": "endogenous in cells; host or cells: A549 human lung epithelial cells (ATCC CCL-185)",
  "T1 sequence (P37088 1-669)": "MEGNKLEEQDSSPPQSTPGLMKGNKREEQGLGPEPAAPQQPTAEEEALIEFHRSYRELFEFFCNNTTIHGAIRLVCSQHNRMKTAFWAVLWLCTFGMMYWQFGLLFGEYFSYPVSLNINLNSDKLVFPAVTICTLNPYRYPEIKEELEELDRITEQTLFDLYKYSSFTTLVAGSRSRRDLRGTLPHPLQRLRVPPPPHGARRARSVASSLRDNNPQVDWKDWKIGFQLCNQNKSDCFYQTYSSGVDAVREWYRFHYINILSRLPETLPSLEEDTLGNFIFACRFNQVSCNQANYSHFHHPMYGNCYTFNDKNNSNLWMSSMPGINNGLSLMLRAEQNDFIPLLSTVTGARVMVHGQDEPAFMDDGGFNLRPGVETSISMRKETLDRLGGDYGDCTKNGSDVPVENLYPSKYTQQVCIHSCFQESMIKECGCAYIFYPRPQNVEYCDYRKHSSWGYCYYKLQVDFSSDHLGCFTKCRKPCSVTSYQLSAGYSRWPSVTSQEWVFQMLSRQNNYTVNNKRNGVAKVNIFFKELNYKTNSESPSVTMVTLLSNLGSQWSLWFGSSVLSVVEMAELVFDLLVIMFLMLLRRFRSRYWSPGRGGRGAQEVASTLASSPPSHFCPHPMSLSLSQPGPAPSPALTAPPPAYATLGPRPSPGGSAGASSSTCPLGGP",
  "T1 sequence (P51168 1-640)": "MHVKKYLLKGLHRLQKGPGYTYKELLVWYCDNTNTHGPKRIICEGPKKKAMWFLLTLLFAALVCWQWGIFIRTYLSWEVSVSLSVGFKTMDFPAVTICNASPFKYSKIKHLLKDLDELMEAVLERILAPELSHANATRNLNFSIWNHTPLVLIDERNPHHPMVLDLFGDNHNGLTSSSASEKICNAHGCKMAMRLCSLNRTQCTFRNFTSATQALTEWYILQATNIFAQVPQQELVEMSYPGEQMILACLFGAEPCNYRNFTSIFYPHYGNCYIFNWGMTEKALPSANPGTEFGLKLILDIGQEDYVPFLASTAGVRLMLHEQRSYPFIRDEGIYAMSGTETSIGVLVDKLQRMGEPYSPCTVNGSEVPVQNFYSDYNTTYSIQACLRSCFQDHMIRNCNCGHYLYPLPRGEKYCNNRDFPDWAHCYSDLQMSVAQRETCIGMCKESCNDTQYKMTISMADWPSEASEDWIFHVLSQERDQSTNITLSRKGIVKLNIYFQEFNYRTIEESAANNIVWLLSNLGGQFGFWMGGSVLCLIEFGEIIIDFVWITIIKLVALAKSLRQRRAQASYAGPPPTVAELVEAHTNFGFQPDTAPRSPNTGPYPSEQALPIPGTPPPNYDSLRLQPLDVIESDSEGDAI",
  "T1 sequence (P51170 1-649)": "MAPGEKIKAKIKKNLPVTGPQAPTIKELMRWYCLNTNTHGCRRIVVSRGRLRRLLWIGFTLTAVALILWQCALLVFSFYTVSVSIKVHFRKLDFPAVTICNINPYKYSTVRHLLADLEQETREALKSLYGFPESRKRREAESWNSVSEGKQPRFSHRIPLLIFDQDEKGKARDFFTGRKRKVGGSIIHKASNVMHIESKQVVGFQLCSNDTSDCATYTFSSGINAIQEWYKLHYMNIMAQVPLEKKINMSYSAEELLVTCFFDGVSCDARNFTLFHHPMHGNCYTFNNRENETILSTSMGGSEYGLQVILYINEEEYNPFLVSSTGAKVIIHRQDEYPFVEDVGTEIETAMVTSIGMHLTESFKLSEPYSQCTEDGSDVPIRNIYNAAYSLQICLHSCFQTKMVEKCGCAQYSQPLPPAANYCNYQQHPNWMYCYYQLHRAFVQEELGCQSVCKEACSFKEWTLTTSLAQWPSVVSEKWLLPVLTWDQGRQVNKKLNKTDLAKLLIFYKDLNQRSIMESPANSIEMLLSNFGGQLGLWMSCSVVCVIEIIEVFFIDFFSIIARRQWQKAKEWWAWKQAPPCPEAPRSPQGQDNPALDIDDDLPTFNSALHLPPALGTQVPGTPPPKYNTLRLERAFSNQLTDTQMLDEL",
  "test": "Patch-clamp activation of sodium ion channels in A549 cells",
  "type": "cell-based",
  "details": "10 μM amiloride",
  "excerpt": "Furthermore, a method common in laboratories is to detect the activation of ion channels by means of patch-clamp experiments, and this is described, for example, in Clunes M. T. et al, J Physiol Volume 557, No. 3, 809-819 (Jun. 15, 2004). For patch-clamp examinations of ion channels, a glass cannula is stretched thin and filled with a neutral buffer solution. The glass cannula (patch-clamp pipette) is carefully pressed onto an intact epithelial cell. A piece of membrane is located below the pipette. An electrical resistance is thereby produced between the interior of the pipette and the external solution. An electrode attached to a sensitive amplifier dips into the pipette solution.\nThe electrophysiological experiments were performed on human A549 cells (ATTC No. CCL-185). A549 cells are human lung epithelial cells which are involved in the diffusion of water and electrolytes in the lungs.\nThe cells were suspended in DMEM-F-12 medium with 1% penicillin-streptomycin and 10% fetal calf serum, transferred into plastic cell culture vessels and cultivated in the incubator with 95% air and 5% CO2 at 37° C. The medium was changed 2 to 3 times per week. The cells double within approx. 22 hours and a cell concentration of more than 7×10^4 cells per cm^2 was not exceeded.\nMacroscopic currents and single-channel currents were discharged from A549 cells in the “whole cell” and “cell-attached” configuration of the “patch-clamp” technique (Hamill et al, Pflugers Arch. 1981, 391(2):85-100, 1981). For the current dissipations in the “whole cell” configuration, the following bath and electrode solutions were used:\nBath solution: 135 mM sodium methane sulfonate, 10 mM NaCl, 2.7 mM KCl, 1.8 mM CaCl2, 2 mM MgCl2, 5.5 mM glucose, and 10 mM HEPES, pH 7.4. […]\nThe cover slips with the cells cultivated thereon were transferred into a test bath with a capacity of 1 ml, fixed on the microscope table (Axiovert 100, 400-fold magnification), and the cells were superfused with the above-described bath solution. […] In the “cell-attached” configuration, the current can be measured through individual ion channels beneath the electrode tip. In the “whole cell” configuration, the membrane was penetrated beneath the electrode tip so that the current flowing through all ion channels of the cell could be measured. […] Upon obtaining a Gigaohm seal, a defined membrane retaining potential was applied via a pre-amplifier (CV-4 Headstage, Axon Instruments) and an amplifier (Axopatch 1D, Axon Instr.) and the current thereby flowing through the ion channels was measured.\nThe pulse protocol consisted of a hyperpolarization to −100 mV for 1 s at an interval of 5 s. […] The current dissipations thus obtained were stored and analyzed by means of the program PCLAMP 6.0. […]",
  "data": [
    {"smiles": "N=C(N)NC(=O)c1nc(Cl)c(N)nc1N", "note": "[amiloride, reference compound]", "values": [
      {"measurement": "inhibition of ion channels (patch clamp)", "result": "inhibition of ion channels"}
    ]}
  ]
}
